Test results reported in PubChem BioAssay AID1259407 (Chemical Carcinogenesis Research Information System (CCRIS), 2018).
Active and inactive are the calls of the source. No rule for the calls is given here.

System: CCRIS mutagenicity, Ames/micronucleus/aberration tests
Test: CCRIS mutagenicity studies
[1] = Test System: AMES SALMONELLA TYPHIMURIUM, Strain/Indicator: TA98, Metabolic Activation: NONE, Method: PREINCUBATION
[2] = Test System: AMES SALMONELLA TYPHIMURIUM, Strain/Indicator: TA100, Metabolic Activation: NONE, Method: PREINCUBATION
[3] = Test System: AMES SALMONELLA TYPHIMURIUM, Strain/Indicator: TA1535, Metabolic Activation: NONE, Method: PREINCUBATION
[4] = Test System: AMES SALMONELLA TYPHIMURIUM, Strain/Indicator: TA1537, Metabolic Activation: NONE, Method: PREINCUBATION
[5] = Test System: AMES SALMONELLA TYPHIMURIUM, Strain/Indicator: TA98, Metabolic Activation: NONE, Method: STANDARD PLATE
[6] = Test System: AMES SALMONELLA TYPHIMURIUM, Strain/Indicator: TA100, Metabolic Activation: NONE, Method: STANDARD PLATE
[7] = Test System: AMES SALMONELLA TYPHIMURIUM, Strain/Indicator: TA100, Metabolic Activation: HAMSTER, LIVER, S-9, AROCLOR 1254 (10%), Method: PREINCUBATION
[8] = Test System: AMES SALMONELLA TYPHIMURIUM, Strain/Indicator: TA100, Metabolic Activation: RAT, LIVER, S-9, AROCLOR 1254 (10%), Method: PREINCUBATION

In the case of OCCOCCOCCO, the mutagenic call [1] is reported as “inactive; negative”, the mutagenic call (Test System: AMES SALMONELLA TYPHIMURIUM, Strain/Indicator: TA98, Metabolic Activation: RAT LIVER S-9, PHENOBARBITAL AND BETA-NAPHTHOFLAVONE, Method: PREINCUBATION) is reported as “inactive; negative” and the mutagenic call [2] is reported as “inactive; negative”. For the same compound, the mutagenic call (Test System: AMES SALMONELLA TYPHIMURIUM, Strain/Indicator: TA100, Metabolic Activation: RAT LIVER S-9, PHENOBARBITAL AND BETA-NAPHTHOFLAVONE, Method: PREINCUBATION) was “inactive; negative”, the mutagenic call [3] was “inactive; negative” and the mutagenic call (Test System: AMES SALMONELLA TYPHIMURIUM, Strain/Indicator: TA1535, Metabolic Activation: RAT LIVER S-9, PHENOBARBITAL AND BETA-NAPHTHOFLAVONE, Method: PREINCUBATION) was “inactive; negative”. For the same compound, the mutagenic call [4] was “inactive; negative”, the mutagenic call (Test System: AMES SALMONELLA TYPHIMURIUM, Strain/Indicator: TA1537, Metabolic Activation: RAT LIVER S-9, PHENOBARBITAL AND BETA-NAPHTHOFLAVONE, Method: PREINCUBATION) was “inactive; negative” and the mutagenic call (Test System: AMES SALMONELLA TYPHIMURIUM, Strain/Indicator: TA1538, Metabolic Activation: NONE, Method: PREINCUBATION) was “inactive; negative”. For the same compound, the mutagenic call (Test System: AMES SALMONELLA TYPHIMURIUM, Strain/Indicator: TA1538, Metabolic Activation: RAT LIVER S-9, PHENOBARBITAL AND BETA-NAPHTHOFLAVONE, Method: PREINCUBATION) was “inactive; negative”, the mutagenic call (Test System: E.COLI, Strain/Indicator: WP2UVRA, Metabolic Activation: NONE, Method: PREINCUBATION) was “inactive; negative” and the mutagenic call (Test System: E.COLI, Strain/Indicator: WP2UVRA, Metabolic Activation: RAT LIVER S-9, PHENOBARBITAL AND BETA-NAPHTHOFLAVONE, Method: PREINCUBATION) was “inactive; negative”.
With Nc1ccccc1SCSc1ccccc1N the mutagenic call [5] was “inactive; negative”, the mutagenic call (Test System: AMES SALMONELLA TYPHIMURIUM, Strain/Indicator: TA98, Metabolic Activation: RAT, LIVER, S-9, AROCLOR 1254, Method: STANDARD PLATE) was “inactive; negative” and the mutagenic call [6] was “inactive; negative”. The mutagenic call (Test System: AMES SALMONELLA TYPHIMURIUM, Strain/Indicator: TA100, Metabolic Activation: RAT, LIVER, S-9, AROCLOR 1254, Method: STANDARD PLATE) was “active; positive”.
With Cc1cc(=O)[nH]c(=S)[nH]1 the mutagenic call (Test System: AMES SALMONELLA TYPHIMURIUM, Strain/Indicator: TA97, Metabolic Activation: HAMSTER, LIVER, S-9, AROCLOR 1254 (10 OR 30%), Method: PREINCUBATION) was “inactive; negative”, the mutagenic call (Test System: AMES SALMONELLA TYPHIMURIUM, Strain/Indicator: TA97, Metabolic Activation: NONE, Method: PREINCUBATION) was “inactive; negative” and the mutagenic call (Test System: AMES SALMONELLA TYPHIMURIUM, Strain/Indicator: TA97, Metabolic Activation: RAT, LIVER, S-9, AROCLOR 1254 (10 OR 30%), Method: PREINCUBATION) was “inactive; negative”. The mutagenic call (Test System: AMES SALMONELLA TYPHIMURIUM, Strain/Indicator: TA98, Metabolic Activation: HAMSTER, LIVER, S-9, AROCLOR 1254 (10 OR 30%), Method: PREINCUBATION) was “inactive; negative”, the mutagenic call [1] was “inactive; negative” and the mutagenic call (Test System: AMES SALMONELLA TYPHIMURIUM, Strain/Indicator: TA98, Metabolic Activation: RAT, LIVER, S-9, AROCLOR 1254 (10 OR 30%), Method: PREINCUBATION) was “inactive; negative”. For the same compound, the mutagenic call [7] was “inactive; negative”, the mutagenic call (Test System: AMES SALMONELLA TYPHIMURIUM, Strain/Indicator: TA100, Metabolic Activation: HAMSTER, LIVER, S-9, AROCLOR 1254 (30%), Method: PREINCUBATION) was “inactive; negative” and the mutagenic call [2] was “inactive; negative”. The mutagenic call [8] was “inactive; negative”, the mutagenic call (Test System: AMES SALMONELLA TYPHIMURIUM, Strain/Indicator: TA100, Metabolic Activation: RAT, LIVER, S-9, AROCLOR 1254 (30%), Method: PREINCUBATION) was “inactive; negative” and the mutagenic call (Test System: AMES SALMONELLA TYPHIMURIUM, Strain/Indicator: TA1535, Metabolic Activation: HAMSTER, LIVER, S-9, AROCLOR 1254 (10 OR 30%), Method: PREINCUBATION) was “inactive; negative”. The mutagenic call [3] was “inactive; negative” and the mutagenic call (Test System: AMES SALMONELLA TYPHIMURIUM, Strain/Indicator: TA1535, Metabolic Activation: RAT, LIVER, S-9, AROCLOR 1254 (10 OR 30%), Method: PREINCUBATION) was “inactive; negative”.
With CC(=O)/C=C/c1ccco1 the mutagenic call (Test System: AMES SALMONELLA TYPHIMURIUM, Strain/Indicator: TA98, Metabolic Activation: HAMSTER, LIVER, S-9, AROCLOR 1254 (10%), Method: PREINCUBATION) was “inactive; negative”, the mutagenic call [1] was “inactive; negative” and the mutagenic call (Test System: AMES SALMONELLA TYPHIMURIUM, Strain/Indicator: TA98, Metabolic Activation: RAT, LIVER, S-9, AROCLOR 1254 (10%), Method: PREINCUBATION) was “inactive; negative”. The mutagenic call [7] was “inactive; negative”, the mutagenic call [2] was “inactive; negative” and the mutagenic call [8] was “inactive; negative”. For the same compound, the mutagenic call (Test System: AMES SALMONELLA TYPHIMURIUM, Strain/Indicator: TA1535, Metabolic Activation: HAMSTER, LIVER, S-9, AROCLOR 1254 (10%), Method: PREINCUBATION) was “inactive; negative”, the mutagenic call [3] was “inactive; negative” and the mutagenic call (Test System: AMES SALMONELLA TYPHIMURIUM, Strain/Indicator: TA1535, Metabolic Activation: RAT, LIVER, S-9, AROCLOR 1254 (10%), Method: PREINCUBATION) was “inactive; negative”. The mutagenic call (Test System: AMES SALMONELLA TYPHIMURIUM, Strain/Indicator: TA1537, Metabolic Activation: HAMSTER, LIVER, S-9, AROCLOR 1254 (10%), Method: PREINCUBATION) was “inactive; negative”, the mutagenic call [4] was “inactive; negative” and the mutagenic call (Test System: AMES SALMONELLA TYPHIMURIUM, Strain/Indicator: TA1537, Metabolic Activation: RAT, LIVER, S-9, AROCLOR 1254 (10%), Method: PREINCUBATION) was “inactive; negative”.
ClCc1cc2c3c(cccc3c1)-c1ccccc1-2 was tested, and the mutagenic call [5] was “active; positive” and the mutagenic call [6] was “active; positive”.
For CNc1ncn(C)c1C(=O)N(C)N=O, the mutagenic call [5] was “inactive; negative”, the mutagenic call (Test System: AMES SALMONELLA TYPHIMURIUM, Strain/Indicator: TA98, Metabolic Activation: S-9, Method: STANDARD PLATE) was “inactive; negative” and the mutagenic call [6] was “inactive; negative”. For the same compound, the mutagenic call (Test System: AMES SALMONELLA TYPHIMURIUM, Strain/Indicator: TA100, Metabolic Activation: S-9, Method: STANDARD PLATE) was “active; positive”, the mutagenic call (Test System: AMES SALMONELLA TYPHIMURIUM, Strain/Indicator: TA102, Metabolic Activation: NONE, Method: STANDARD PLATE) was “active; positive” and the mutagenic call (Test System: AMES SALMONELLA TYPHIMURIUM, Strain/Indicator: TA102, Metabolic Activation: S-9, Method: STANDARD PLATE) was “active; positive”. For the same compound, the mutagenic call (Test System: AMES SALMONELLA TYPHIMURIUM, Strain/Indicator: TA1535, Metabolic Activation: S-9, Method: STANDARD PLATE) was “active; positive”, the mutagenic call (Test System: AMES SALMONELLA TYPHIMURIUM, Strain/Indicator: TA1537, Metabolic Activation: NONE, Method: STANDARD PLATE) was “inactive; negative” and the mutagenic call (Test System: AMES SALMONELLA TYPHIMURIUM, Strain/Indicator: TA1537, Metabolic Activation: S-9, Method: STANDARD PLATE) was “inactive; negative”.
